Assay results reported in publication PMC9853869, “The Myxobacterial Antibiotic Myxovalargin: Biosynthesis, Structural Revision, Total Synthesis, and Molecular Characterization of Ribosomal Inhibition” (Journal of the American Chemical Society, 2023).
*1 amine or outer side, *2 acyl side, *3 side chain or, on linkers, in order; H or OH if unused. Where a SMILES comes first, the peptide text is derived from it. [ ]: non-standard residue; d: D form. The star is where a group is joined. X1 = O=C(C[C@H](N[*:1])c1ccc(O)cc1)[*:2]; dVal(3-OH) = CC(C)(O)[C@@H](N)C(=O)O; ΔIle(E) = CC/C(C)=C(/N)C(=O)O; Isovaleryl = CC(C)CC(=O)*; Agmatine = N=C(N)NCCCCN*; NMeA = CN[C@@H](C)C(=O)O; ΔVal = CC(C)=C(N)C(=O)O

Legend:
M. tuberculosis = type: cell-based, Mycobacterium tuberculosis
[1] = tested on: M. tuberculosis MXV-SRM69 (rrl: t2847c, rrl: t2849g, Rv2935/ppsE: G146*); conditions: MXV-SRM69 (rrl: t2847c, rrl: t2849g, Rv2935/ppsE: G146*, 4 h)

CC/C(C)=C(/NC(=O)[C@H](NC(=O)[C@@H](NC(=O)[C@@H](CCCNC(=N)N)NC(=O)C(NC(=O)[C@H](NC(=O)C[C@H](NC(=O)[C@H](NC(=O)[C@H](NC(=O)[C@H](C)N(C)C(=O)[C@H](C)NC(=O)C(NC(=O)CC(C)C)=C(C)C)C(C)C)C(C)C)c1ccc(O)cc1)C(C)C)=C(C)C)C(C)C)C(C)C)C(=O)N[C@H](C)C(=O)N[C@@H](C(=O)NCCCCNC(=N)N)C(C)(C)O [MyxA, Myxovalargin A] (Isovaleryl-[ΔVal]A[NMeA][dV][dV][X1][dV][ΔVal][dR]V[dV][ΔIle(E)][dA][dVal(3-OH)]-Agmatine)
MIC shift of resistant mutant strains (M. tuberculosis): > 40 fold
frequency of spontaneous resistance mutants (M. tuberculosis): ~6 × 10^–7
MIC [1]: >210 µg/mL
